Test results published in patent publication US20150276740A1, “METHOD FOR D[…] ACTIVITY” (SYSMEX CORPORATION, priority 2014, published 2015).

Columns and labels:
CDK1 = biological target: T1, CDK1 (Homo sapiens, UniProt P06493); assay: Determination of CDK1 kinase activity using chemical luminescence with the ATP derivative as phosphate-group donor (S/N evaluation); assay type: biochemical; conditions: CDK1 immunoprecipitated from K562 solubilized sample; biotinylated CDK2 substrate peptide; anti-DNP antibody detection; compared to the S/N ratio of Comparative Example 1 (ATPγS as phosphate-group donor)
T1 construct: a reaction was caused to occur between CDK1 and the anti-CDK1 antibody; endogenous in cells; host or cells: K562 cells (lysate, immunoprecipitated with anti-CDK1 antibody from Operon on protein A Sepharose beads)
Experimental: In a well of a 96-well filter plate (hydrophilic PVDF membrane manufactured by Millipore Corp.), 70 μL of an immunoprecipitation buffer (a buffer containing 0.1 mass % Nonidet NP-40 and 50 mM tris hydrochloride (pH7.4)) was added. Then, with respect to the immunoprecipitation buffer in the well, 20 μL of an antibody solution containing 16 μg of an anti-CDK1 antibody (manufactured by Operon Co., ltd.), and 30 μL of 20 v/v % Sepharose beads (manufactured by GE Healthcare) coated with protein A were added. […]
Next, with respect to the beads that had been cleaned, 50 μL of the CDK substrate solution (composition: 100 ng/μL biotinylated CDK2 substrate peptide (manufactured by Enzo Inc.), the compound 2 represented by formula (x2), 54 mM tris hydrochloride (pH7.4), and 20 mM magnesium chloride) was added to obtain a mixture. The concentration of the compound 2 was a concentration that provided an absorbance of 2 at 362 nm. This absorbance was measured in a manner similar to that in Example 1 (2). […]

[1] = tested on: biotinylated CDK2 substrate peptide (Biotin-Ahx-His-His-Ala-Ser-Pro-Arg-Lys)

T1 sequence (P06493 whole entry): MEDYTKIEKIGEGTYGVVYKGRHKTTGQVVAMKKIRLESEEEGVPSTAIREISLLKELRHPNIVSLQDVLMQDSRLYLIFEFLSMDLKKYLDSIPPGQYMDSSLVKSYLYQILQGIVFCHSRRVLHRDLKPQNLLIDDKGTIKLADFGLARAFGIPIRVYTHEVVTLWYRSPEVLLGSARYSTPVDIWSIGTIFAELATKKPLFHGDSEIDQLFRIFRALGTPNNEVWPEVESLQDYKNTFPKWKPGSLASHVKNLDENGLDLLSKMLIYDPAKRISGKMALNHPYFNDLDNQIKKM
T1 sequence (P14635 whole entry partner): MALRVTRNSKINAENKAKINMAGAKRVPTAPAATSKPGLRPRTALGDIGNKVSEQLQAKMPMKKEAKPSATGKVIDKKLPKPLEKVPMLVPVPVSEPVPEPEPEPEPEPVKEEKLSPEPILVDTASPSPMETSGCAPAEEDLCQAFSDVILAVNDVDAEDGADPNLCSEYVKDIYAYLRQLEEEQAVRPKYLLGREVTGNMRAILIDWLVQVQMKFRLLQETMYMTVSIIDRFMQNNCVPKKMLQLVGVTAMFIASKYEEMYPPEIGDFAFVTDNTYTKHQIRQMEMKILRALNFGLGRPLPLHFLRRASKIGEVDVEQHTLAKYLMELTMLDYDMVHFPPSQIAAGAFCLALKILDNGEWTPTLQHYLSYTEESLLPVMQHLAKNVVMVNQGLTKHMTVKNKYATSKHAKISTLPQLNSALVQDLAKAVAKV

| Compound | S/N ratio (luminescence intensity A1/luminescence intensity B) (CDK1) | specific luminescence intensity based on CDK2 activity (ATPγDNP transphosphorylation, ALP labeled anti-DNP antibody, chemiluminescence) [1] |
| --- | --- | --- |
| Nc1ncnc2c1ncn2C1OC(COP(=O)(O)OP(=O)(O)OP(=O)(O)SC2CC(=O)N(CCC(=O)NCCOCCOCCCNC(CCCCNc3ccc([N+](=O)[O-])cc3[N+](=O)[O-])C(=O)O)C2=O)C(O)C1O (centres unmarked) [compound 4] | tended to be high | – |
| cyclin-dependent kinase (CDK) 2 | – | the specific luminescence intensity based on CDK2 activity increases in association with an increase in the CDK2 concentration (increase in the solubilized sample concentration) |
